Results taken from ChEMBL document CHEMBL5653615 (J Biol Chem, 2013).

Columns and labels:
[1] = target: T1, Mitogen-activated protein kinase kinase kinase 5 (Homo sapiens) (UniProt Q99683); experiment: Inhibition of human ASK1 at 18.6 nM by HotSpot assay relative to control
T1 sequence (whole entry): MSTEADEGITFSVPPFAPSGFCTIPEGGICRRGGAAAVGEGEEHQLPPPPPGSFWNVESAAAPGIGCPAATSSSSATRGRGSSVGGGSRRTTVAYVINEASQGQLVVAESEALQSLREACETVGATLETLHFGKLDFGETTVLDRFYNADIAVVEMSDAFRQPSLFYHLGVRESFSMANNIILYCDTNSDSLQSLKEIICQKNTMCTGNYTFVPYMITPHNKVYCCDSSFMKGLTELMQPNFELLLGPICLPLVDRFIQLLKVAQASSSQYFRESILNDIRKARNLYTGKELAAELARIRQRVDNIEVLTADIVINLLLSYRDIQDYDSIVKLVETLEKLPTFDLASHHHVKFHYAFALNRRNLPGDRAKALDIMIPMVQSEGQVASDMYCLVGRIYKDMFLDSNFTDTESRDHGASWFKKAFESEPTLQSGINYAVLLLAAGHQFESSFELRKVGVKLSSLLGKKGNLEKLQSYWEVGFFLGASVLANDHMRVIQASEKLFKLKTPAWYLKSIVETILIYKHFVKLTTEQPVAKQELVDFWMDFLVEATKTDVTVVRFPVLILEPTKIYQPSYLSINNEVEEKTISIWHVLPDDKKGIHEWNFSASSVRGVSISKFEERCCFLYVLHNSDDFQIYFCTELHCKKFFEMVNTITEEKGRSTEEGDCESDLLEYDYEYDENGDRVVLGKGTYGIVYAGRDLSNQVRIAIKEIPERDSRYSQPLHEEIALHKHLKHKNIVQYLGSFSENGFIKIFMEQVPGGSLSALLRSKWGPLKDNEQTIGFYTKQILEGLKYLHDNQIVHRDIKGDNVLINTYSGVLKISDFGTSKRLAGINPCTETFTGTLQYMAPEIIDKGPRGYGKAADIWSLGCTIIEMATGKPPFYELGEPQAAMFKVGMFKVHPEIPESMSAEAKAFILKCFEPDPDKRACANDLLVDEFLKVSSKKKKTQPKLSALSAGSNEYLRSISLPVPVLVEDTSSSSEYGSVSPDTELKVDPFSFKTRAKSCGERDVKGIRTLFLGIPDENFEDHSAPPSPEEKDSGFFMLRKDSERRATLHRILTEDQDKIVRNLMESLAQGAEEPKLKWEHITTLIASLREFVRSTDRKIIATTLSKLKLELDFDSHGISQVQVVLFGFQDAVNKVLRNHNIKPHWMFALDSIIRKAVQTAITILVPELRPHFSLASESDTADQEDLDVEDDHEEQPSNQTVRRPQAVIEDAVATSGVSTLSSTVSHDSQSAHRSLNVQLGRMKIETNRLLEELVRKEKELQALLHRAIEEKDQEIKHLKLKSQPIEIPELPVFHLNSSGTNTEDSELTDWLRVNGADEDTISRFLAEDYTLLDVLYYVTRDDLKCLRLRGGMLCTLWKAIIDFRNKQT

[2] = target: Mitogen-activated protein kinase kinase kinase kinase 4 (Homo sapiens) (UniProt O95819); experiment: Inhibition of human HGK at 18.6 nM by HotSpot assay relative to control
[3] = target: T2, MAP/microtubule affinity-regulating kinase 4 (Homo sapiens) (UniProt Q96L34); experiment: Inhibition of human MARK4 at 18.6 nM by HotSpot assay relative to control
T2 sequence (whole entry): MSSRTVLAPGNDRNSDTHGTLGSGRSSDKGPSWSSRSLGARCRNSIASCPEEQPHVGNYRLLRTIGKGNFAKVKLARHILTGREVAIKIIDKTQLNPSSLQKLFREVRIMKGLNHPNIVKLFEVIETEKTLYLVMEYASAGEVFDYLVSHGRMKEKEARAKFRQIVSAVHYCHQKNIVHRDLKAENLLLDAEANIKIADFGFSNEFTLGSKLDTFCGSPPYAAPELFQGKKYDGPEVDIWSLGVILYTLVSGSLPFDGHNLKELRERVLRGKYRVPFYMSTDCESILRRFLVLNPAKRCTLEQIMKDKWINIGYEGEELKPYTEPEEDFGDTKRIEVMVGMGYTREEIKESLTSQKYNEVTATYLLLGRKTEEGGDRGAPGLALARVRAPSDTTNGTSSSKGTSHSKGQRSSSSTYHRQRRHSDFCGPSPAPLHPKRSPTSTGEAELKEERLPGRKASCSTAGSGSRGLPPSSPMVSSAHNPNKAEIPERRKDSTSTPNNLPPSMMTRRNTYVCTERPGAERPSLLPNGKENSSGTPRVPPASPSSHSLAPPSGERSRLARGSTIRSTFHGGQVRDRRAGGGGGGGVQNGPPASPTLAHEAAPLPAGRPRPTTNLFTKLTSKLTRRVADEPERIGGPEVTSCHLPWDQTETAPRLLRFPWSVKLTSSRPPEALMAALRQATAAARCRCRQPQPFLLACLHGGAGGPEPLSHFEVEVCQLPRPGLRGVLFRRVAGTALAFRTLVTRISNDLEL

[4] = target: Serine/threonine-protein kinase 26 (Homo sapiens) (UniProt Q9P289); experiment: Inhibition of human MST4 at 18.6 nM by HotSpot assay relative to control
[5] = target: Platelet-derived growth factor receptor alpha (Homo sapiens) (UniProt P16234); experiment: Inhibition of human PDGFRa at 18.6 nM by HotSpot assay relative to control
[6] = target: STE20-like serine/threonine-protein kinase (Homo sapiens) (UniProt Q9H2G2); experiment: Inhibition of human STK2 at 18.6 nM by HotSpot assay relative to control
[7] = target: Serine/threonine-protein kinase Nek7 (Homo sapiens) (UniProt Q8TDX7); experiment: Inhibition of human NEK7 at 1.82 nM by HotSpot assay relative to control
[8] = target: Serine/threonine-protein kinase PAK 5 (Homo sapiens) (UniProt Q9P286); experiment: Inhibition of human PAK5 at 1.82 nM by HotSpot assay relative to control
[9] = target: T3, Testis-specific serine/threonine-protein kinase 1 (Homo sapiens) (UniProt Q9BXA7); experiment: Inhibition of human TSSK1 at 1.82 nM by HotSpot assay relative to control
T3 sequence (whole entry): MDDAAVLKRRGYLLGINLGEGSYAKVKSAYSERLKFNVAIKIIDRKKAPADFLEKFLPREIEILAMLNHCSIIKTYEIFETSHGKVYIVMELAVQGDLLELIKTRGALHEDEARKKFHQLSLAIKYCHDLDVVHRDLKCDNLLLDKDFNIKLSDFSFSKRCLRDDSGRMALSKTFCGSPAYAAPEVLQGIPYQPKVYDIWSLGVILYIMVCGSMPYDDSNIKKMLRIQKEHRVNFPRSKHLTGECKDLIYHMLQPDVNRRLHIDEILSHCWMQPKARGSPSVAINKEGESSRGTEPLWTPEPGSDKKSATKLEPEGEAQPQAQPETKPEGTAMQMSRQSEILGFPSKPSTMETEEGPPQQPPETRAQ

Chain of Serine/threonine-protein kinase PAK 5 (Homo sapiens) (Q9P286 whole entry, looked up): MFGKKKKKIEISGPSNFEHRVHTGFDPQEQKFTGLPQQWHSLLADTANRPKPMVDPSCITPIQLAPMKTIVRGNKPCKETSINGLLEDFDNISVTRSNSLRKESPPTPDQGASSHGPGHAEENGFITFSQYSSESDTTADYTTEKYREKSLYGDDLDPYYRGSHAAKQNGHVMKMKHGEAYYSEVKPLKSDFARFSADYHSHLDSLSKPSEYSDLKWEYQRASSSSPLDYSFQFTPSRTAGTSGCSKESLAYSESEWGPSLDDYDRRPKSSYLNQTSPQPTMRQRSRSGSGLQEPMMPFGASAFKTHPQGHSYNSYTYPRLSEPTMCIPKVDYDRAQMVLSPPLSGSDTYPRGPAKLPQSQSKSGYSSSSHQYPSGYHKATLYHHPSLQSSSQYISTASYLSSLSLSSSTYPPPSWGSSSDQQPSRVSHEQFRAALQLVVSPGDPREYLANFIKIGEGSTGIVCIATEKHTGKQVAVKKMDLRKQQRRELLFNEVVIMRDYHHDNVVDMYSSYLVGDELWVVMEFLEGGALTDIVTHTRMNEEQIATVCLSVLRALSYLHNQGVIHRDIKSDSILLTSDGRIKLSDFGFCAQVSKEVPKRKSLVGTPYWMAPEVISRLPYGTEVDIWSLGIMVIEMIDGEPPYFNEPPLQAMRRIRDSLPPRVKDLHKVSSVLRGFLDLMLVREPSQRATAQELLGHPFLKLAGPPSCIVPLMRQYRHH
Chain of Platelet-derived growth factor receptor alpha (Homo sapiens) (P16234 whole entry): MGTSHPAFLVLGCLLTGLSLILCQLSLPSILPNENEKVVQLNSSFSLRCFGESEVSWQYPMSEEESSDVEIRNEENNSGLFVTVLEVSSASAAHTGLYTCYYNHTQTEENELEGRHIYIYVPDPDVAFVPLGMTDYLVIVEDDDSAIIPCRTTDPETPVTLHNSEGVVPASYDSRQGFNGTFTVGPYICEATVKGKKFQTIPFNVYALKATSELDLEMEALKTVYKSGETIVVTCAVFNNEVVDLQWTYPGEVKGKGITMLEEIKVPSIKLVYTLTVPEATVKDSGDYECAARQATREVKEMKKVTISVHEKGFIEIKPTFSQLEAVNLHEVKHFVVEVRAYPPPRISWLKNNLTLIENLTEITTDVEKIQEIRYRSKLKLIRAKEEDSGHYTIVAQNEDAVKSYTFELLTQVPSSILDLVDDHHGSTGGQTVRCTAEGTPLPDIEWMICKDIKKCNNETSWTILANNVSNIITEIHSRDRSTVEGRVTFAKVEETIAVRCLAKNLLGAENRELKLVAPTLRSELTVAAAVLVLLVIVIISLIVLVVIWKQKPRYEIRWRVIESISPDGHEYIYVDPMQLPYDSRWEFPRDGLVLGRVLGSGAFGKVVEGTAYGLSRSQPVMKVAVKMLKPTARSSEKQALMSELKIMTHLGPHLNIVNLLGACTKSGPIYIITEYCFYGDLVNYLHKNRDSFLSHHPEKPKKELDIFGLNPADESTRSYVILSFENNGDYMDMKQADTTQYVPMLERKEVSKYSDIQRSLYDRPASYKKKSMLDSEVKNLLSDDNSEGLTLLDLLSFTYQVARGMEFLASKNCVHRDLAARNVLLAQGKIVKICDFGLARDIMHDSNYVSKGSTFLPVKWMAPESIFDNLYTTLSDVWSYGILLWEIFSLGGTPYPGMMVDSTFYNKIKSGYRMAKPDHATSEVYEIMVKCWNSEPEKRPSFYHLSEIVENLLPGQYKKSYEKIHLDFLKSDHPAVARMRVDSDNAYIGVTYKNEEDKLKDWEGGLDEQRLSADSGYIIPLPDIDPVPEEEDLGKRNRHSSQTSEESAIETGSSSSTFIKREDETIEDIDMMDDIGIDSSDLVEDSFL
Chain of Mitogen-activated protein kinase kinase kinase kinase 4 (Homo sapiens) (O95819 2-1239 limits assumed): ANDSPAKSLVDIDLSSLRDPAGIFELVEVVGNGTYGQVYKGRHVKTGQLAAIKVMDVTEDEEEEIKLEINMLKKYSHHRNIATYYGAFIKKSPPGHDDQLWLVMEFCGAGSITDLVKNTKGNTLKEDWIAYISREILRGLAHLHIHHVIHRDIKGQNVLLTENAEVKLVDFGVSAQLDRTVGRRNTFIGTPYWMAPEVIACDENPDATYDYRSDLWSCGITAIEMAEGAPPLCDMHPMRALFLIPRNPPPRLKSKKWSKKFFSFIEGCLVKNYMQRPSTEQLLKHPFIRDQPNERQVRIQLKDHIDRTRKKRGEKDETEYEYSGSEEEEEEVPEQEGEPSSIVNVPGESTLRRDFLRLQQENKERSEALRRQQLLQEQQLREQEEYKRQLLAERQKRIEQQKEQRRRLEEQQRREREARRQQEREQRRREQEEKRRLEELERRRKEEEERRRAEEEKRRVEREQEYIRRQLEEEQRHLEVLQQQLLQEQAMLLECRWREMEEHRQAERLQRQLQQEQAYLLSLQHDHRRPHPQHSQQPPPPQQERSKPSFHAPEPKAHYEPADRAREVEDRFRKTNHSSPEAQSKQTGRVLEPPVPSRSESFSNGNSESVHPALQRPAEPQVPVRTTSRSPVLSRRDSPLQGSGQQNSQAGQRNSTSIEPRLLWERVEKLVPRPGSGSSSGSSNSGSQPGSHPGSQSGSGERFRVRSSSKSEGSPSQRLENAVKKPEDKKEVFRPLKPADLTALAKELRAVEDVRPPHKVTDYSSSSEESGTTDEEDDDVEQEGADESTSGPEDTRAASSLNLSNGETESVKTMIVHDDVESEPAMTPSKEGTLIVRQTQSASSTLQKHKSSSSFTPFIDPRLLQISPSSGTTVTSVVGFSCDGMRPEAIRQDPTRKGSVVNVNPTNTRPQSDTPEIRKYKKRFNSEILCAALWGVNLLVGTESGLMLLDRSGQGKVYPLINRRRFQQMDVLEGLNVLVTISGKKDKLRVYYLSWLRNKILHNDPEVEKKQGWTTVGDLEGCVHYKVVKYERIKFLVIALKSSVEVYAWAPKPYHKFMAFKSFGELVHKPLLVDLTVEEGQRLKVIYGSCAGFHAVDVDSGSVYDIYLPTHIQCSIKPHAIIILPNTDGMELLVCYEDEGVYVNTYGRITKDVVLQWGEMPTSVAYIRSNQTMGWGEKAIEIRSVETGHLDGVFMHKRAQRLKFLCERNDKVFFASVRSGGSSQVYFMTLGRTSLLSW
Chain of STE20-like serine/threonine-protein kinase (Homo sapiens) (Q9H2G2 whole entry, looked up): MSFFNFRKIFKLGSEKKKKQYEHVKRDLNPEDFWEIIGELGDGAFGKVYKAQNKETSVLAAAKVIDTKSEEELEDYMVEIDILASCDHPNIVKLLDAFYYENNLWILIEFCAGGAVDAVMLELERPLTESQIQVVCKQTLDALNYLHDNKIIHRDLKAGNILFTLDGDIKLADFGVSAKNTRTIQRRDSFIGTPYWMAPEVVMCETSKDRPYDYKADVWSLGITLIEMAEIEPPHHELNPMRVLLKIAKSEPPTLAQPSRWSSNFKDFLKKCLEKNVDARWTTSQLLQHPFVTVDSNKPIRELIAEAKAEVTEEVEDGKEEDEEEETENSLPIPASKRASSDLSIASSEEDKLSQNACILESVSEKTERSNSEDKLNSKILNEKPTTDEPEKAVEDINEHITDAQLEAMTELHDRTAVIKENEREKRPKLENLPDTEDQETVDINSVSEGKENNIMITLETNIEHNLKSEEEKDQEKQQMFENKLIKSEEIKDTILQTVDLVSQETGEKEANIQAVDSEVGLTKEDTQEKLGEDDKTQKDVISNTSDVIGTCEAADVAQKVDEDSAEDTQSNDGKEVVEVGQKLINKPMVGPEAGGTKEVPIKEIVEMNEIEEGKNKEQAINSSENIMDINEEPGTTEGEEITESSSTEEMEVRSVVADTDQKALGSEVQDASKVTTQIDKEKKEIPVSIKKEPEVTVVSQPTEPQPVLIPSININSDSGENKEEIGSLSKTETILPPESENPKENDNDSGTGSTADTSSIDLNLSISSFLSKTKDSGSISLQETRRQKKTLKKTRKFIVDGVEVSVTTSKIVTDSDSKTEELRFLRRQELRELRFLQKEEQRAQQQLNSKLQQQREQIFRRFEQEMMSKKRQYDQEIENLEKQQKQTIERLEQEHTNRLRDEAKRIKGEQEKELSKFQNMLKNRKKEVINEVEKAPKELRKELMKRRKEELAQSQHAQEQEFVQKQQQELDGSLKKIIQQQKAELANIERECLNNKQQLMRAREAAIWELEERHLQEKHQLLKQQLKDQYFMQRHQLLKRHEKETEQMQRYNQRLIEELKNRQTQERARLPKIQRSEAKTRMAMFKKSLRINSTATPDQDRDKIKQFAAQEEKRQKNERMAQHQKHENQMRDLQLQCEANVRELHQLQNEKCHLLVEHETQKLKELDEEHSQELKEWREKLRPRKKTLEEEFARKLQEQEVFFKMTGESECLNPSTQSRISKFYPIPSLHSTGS
Chain of Serine/threonine-protein kinase Nek7 (Homo sapiens) (Q8TDX7 whole entry, looked up): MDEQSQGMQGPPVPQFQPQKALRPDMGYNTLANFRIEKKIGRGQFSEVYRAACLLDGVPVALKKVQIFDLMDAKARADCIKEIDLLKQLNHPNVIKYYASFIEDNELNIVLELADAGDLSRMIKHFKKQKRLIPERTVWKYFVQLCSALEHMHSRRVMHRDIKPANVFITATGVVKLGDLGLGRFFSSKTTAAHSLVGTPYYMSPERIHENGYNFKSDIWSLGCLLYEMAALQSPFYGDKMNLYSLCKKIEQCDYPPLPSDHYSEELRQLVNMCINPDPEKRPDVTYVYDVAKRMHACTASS
Chain of Serine/threonine-protein kinase 26 (Homo sapiens) (Q9P289 2-416 limits assumed): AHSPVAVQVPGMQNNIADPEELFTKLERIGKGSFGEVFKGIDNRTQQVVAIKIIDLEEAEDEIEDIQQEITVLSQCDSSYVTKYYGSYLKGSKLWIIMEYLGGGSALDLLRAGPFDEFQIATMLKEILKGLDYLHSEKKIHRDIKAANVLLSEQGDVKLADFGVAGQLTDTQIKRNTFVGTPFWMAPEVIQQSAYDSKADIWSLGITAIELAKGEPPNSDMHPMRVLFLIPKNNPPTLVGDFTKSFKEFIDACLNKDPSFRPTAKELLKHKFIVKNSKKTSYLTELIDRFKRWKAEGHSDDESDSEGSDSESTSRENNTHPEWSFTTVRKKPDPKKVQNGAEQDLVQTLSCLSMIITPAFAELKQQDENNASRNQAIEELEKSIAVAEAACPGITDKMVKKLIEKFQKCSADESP

An inhibition [1] of -8.46%, an inhibition [2] of -9.59% and an inhibition [3] of 7.12% were found for `C[C@]1(O)C[C@@H](c2nc(-c3ccc4ccc(-c5ccccc5)nc4c3)c3c(N)nccn32)C1` in this work. It also gave an inhibition [4] of -2.21%, an inhibition [5] of 2.05% and an inhibition [6] of 9.03%.
An inhibition [7] of -3.98%, an inhibition [8] of -4.48% and an inhibition [9] of 4.11% were found for `C[C@@]1(C(=O)Nc2ccc(F)nc2)CCCN1c1nc(Nc2cc(C3CC3)n[nH]2)c2cccn2n1` in this work.
